Experimental data as given in patent US11912755B2, “Endostatin fragments and variants for use in treating fibrosis” (iBio, Inc., priority 2015, dated 2024).

Columns and labels:
[1] = tested on: human skin explants; assay: Ex vivo human skin assay, dermal thickness; type: cell-based
Experimental: Ex vivo human skin assays. Human abdominal skin was obtained from corrective plastic surgery. As previously described (Yasuoka et al., The Open Rheumatol J 2008; 2:17-22), subcutaneous fat tissue was removed uniformly and skin tissue was cut into 1.5 cm×1.5 cm sections. The following were injected intradermally in a total volume of 100 μl 1×PBS: rE alone (1-10 μg/ml), endostatin peptides alone (10 μg/ml), rE or endostatin peptides (1-20 μg/ml) in combination with TGF-β (10 ng/ml), and TGF-β alone (10 ng/ml). In some experiments, human skin was first injected with TGF-β for 48 h followed by recombinant endostatin (rE) administration in the same injection site as TGF-β. Explants containing complete epidermal and dermal layers were cultured in an air liquid interface with the epidermal and keratin layers side up and exposed to air. The culture medium was replaced every other day. After 1 or 2 weeks, skin tissue corresponding to an area with 8-mm diameter centered around the injection site was harvested using disposable 8-mm ACUPUNCH® (Acuderm, Inc., Lauderdale, FL). Skin tissue was fixed in 10% formalin prior to embedding in paraffin.
(§1) Measurement of Skin Dermal Thickness. Six μm sections of paraffin-embedded human and mouse skin tissues were stained with hematoxylin and eosin (H&E). In some experiments, sections were stained with Masson trichrome which identifies collagens. Images were taken on a Nikon Eclipse 800 microscope. The thickness of the dermis was measured in 6 random fields of each section using the image/J® software. Data are shown in arbitrary units.

[2] = tested on: TGF-β-induced dermal fibrosis in mouse skin; assay: In vivo TGF-β-induced dermal fibrosis in mouse skin; details: 10 μg/ml intradermal with TGF-β 10 ng/ml; one week
Experimental: In Vivo Mouse Experiments. CB57BL6/J male mice were purchased from The Jackson Laboratory (Bar Harbor, ME). Human rE (10 μg/ml) or Endostatin peptides (10 μg/ml) in combination with TGF-β (10 ng/ml), or TGF-β alone were injected intradermally on the back of mice in a total volume of 100 μl 1×PBS. Mice were injected in two different skin sites and sacrificed one week post-injection. Skin surrounding the injection site was harvested and fixed in 10% formalin prior to embedding in paraffin.
as §1
E4, a peptide representing the carboxy terminus of human endostatin, can attenuate fibrosis triggered by multiple fibrogenic factors. The anti-fibrotic effects of E4 can be detected whether administered concomitantly with or following the fibrogenic trigger. The efficacy of E4 was confirmed in […] pre-clinical models of fibrosis: a) bleomycin-induced dermal fibrosis in vivo in mouse skin, b) TGF-β induced dermal fibrosis in mouse skin, and c) bleomycin-induced pulmonary fibrosis. E4 peptide or a control peptide (E1; representing the amino terminal region of endostatin) were administered at the same time as TGF-β or bleomycin or 3-4 days following TGF-β or bleomycin. Mice were sacrificed one and two weeks after TGF-β-initiation of dermal fibrosis, and two and three weeks after bleomycin-induced pulmonary fibrosis. Two different modes of administration of the E4 peptide were also tested. It was confirmed that intraperitoneal and intratracheal administration was effective. The amount of E4 that was administered was 10 μg/ml in a total volume of 100 μl for skin and IP injections and 50 μl for IT administration.
For these studies, fibrosis was assessed by measurement of dermal thickness on H&E skin sections (skin), assessment of collagen levels by Masson Trichrome staining (skin and lung), and measurement of collagen levels by Sircol assay (lung). Furthermore, to confirm the mechanism by which E4 exerts its anti-fibrotic effects, the production of extra-cellular matrix (ECM) components, the levels of enzymes that promote matrix stabilization and thus accumulation and levels of those that degrade ECM components, and levels of transcription factors downstream of the pro-fibrotic triggers were evaluated. Results were assessed using the unpaired t test and the 3-way ANOVA (for the ID1 data).

[3] = tested on: TGF-β-induced dermal fibrosis in mouse skin; details: single dose concurrently with TGF-β; cited from earlier work
[4] = tested on: rabbit ear scar model; details: in vivo; cited from earlier work
[5] = tested on: patients with advanced solid tumors; details: daily 1-hour intravenous infusion at doses up to 300 mg/m2; cited from earlier work
[6] = tested on: diabetes/renal fibrosis model; details: rat, in vivo; cited from earlier work
[7] = tested on: IPF model; details: rat, in vivo; cited from earlier work
[8] = tested on: liver fibrosis model; details: mouse, in vivo; cited from earlier work
[9] = tested on: human primary lung fibroblasts; details: adenovirally-expressed endostatin; fibroblasts pretreated with TGF-β; cited from earlier work
[10] = tested on: bleomycin-induced pulmonary fibrosis; assay: Bleomycin mouse model of pulmonary fibrosis, plant-made E3 variants oral or IV; type: in vivo; details: oral treatment
Source text: Peptides were expressed in plants using the IBIOLAUNCH™ gene expression platform. C57BL/6 mice were given bleomycin intratracheally in conjunction with END-55 (also referred to herein as E3-Fc (C67A) and CFB03) intravenous (IV) administration, or followed by IV administration of END-55 eight days after bleomycin. The mice were sacrificed at day 12 and lung samples were taken for both hematoxylin and eosin (H&E) staining and hydroxyproline assay.
Pulmonary fibrosis was induced in mice using bleomycin. Animals were treated orally with E3 variants or phosphate buffered saline (PBS). Lung histology was examined, showing that orally delivered E3 variants (E3-6His-KDEL (SEQ ID NO:19) and Expanded E3-6His-KDEL(SEQ ID NO:19)) prevented bleomycin-induced pulmonary fibrosis.
For the experiments shown in FIGS. 21 and 22, pulmonary fibrosis was again induced in mice using bleomycin. […] Hydroxyproline content was measured in the lung.
To evaluate tissue fibrosis/collagen deposition, a hydroxyproline quantification assay was performed. […] Aliquots were transferred to 96-well plates, and absorbance was measured at 570 nm. Collagen content was calculated by comparison with a standard curve generated with cis-4 hydroxy-L-proline (Sigma-Aldrich), using the conversion factor of 1 μg hydroxyproline corresponding to 6.94 μg. […]

E3: synthetic peptide, SEQ ID NO: 20, amino acids 133-180 of human endostatin (SYCETWRTEAPSATGQASSLLGGRLLGQSAASCHHAYIVLCIENSFMT; E3 amino acid sequence)
dermal thickness, baseline effect ([1]; injected alone, no TGF-β, rE 1, 5, 10 μg/ml, peptides 10 μg/ml): tendency towards reduction | development of fibrosis as measured by dermal thickness ([1]; peptides 10 μg/ml with 10 ng/ml TGF-β, vs TGF-β alone): significantly abolished | TGF-β-induced dermal fibrosis (dermal thickness) [2]: prevented | skin thickness [3]: significantly decreased skin

Endostatin
injury parameters [4]: reversed injury parameters | tolerability [5]: well tolerated | injury parameters [6]: reversed injury parameters | injury parameters [7]: reversed injury parameters | injury parameters [8]: reversed injury parameters | FN and Col1α1 protein levels [9]: endostatin markedly reduced

B1: E3-6His-KDEL: SEQ ID NO:15; secretory leader peptide, E3, tagged with 6X His and KDEL sequence; plant-made (protein)
chain: MGKMASLFATFLVVLVSLSLASESSASYCETWRTEAPSATGQASSLLGGRLLGQSAASCHHAYIVLCIENSFMTHHHHHHKDEL
modifications: amino acid sequence including a secretory sequence, a portion of human endostatin, and a peptide tag
notes: plant-made
bleomycin-induced pulmonary fibrosis, lung histology [10]: prevented

B2: Expanded E3-6His-KDEL: SEQ ID NO:17; E3 extended by 17 amino acids from Collagen XVIII, S→Y, C67A, ASK, 6X His KDEL (protein)
chain: MGKMASLFATFLVVLVSLSLASESSAQKSVWHGSDPNGRRLTESYCETWRTEAPSATGQAYSLLGGRLLGQSAASCHHAYIVLAIENSFMTASKHHHHHHKDEL
modifications: amino acid sequence including a secretory sequence, a portion of collagen XVIII, a portion of human endostatin having a C67A mutation, and a peptide tag
notes: E3 extended by 17 amino acids from Collagen XVIII, S→Y, C67A, ASK, 6X His KDEL
bleomycin-induced pulmonary fibrosis, lung histology [10]: prevented
